# *1 amine or outer side, *2 acyl side, *3 side chain or, on linkers, in order; H or OH if unused. Where no end group is shown, it is not given here. [ ]: non-standard residue; d: D form. γGlu = O=C(O)[C@H](CCC(=O)[*:2])N[*:1]; Met(O) = CS(=O)CC[C@H](N)C(=O)O
# How the values were obtained:
# calcium receptor = details: shown in WO 2007/055388, WO 2007/055393, WO 2008/139945-7; J. Biol. Chem. 2006; cited from earlier work
# male SD rats [1] = assay: Oral glucose tolerance test in rats; type: in vivo; details: rat, oral 160 mg/kg with glucose 2 g/kg, at 15 and 30 minutes after glucose administration, compared to glucose solution alone; FIG. 5
# Procedure: After male SD rats (7-week-old) had been preliminarily fed (for 3 to 4 days), and fasted overnight, they were subjected to an oral glucose tolerance test. Tail vein blood before specimen administration was collected, and a sample [glucose solution alone (2 g/kg weight)/glucose solution comprising γ-Glu-Cys (160 mg/kg weight)] was orally administered with a feeding tube. After sample administration, tail vein blood was collected at 15, 30, 60, 90, and 120 minutes, and the plasma glucose concentration was measured with a commercially available kit (manufactured by Wako Pure Chemical Industries, Ltd.).
# [2] = tested on: GLP-1-producing cell strain GLUTag; assay: Function to promote secretion of GLP-1 from GLUTag cells; type: cell-based, mouse; details: incubation 37° C. for 60 minutes, GLP-1 in supernatant by Enzyme immuno assay, vs Hepes B buffer control, FIGS. 2 and 3
# Procedure: A GLP-1-producing cell strain GLUTag derived from the mouse large intestine was cultured in a Dulbecco's modified Eagle's medium supplemented with 10% FBS at 37° C. in the presence of 5% CO2. The GLUTag cells were cultured in a 48-well plate for 2 to 3 days until the cells reached a subconfluent state. Prior to the addition of each of samples, the wells were washed with a Hepes B buffer (140 mM NaCl, 4.5 mM KCl, 20 mM Hepes, 1.2 mM CaCl2, 1.2 mM MgCl2, 10 mM D-glucose, 0.1% BSA, pH 7.4), 80 μl of a sample solution obtained by dissolving each of the samples in the same buffer were added to the wells, and incubation was performed at 37° C. for 60 minutes. γ-Glu-Cys-Gly and cinacalcet were used as the samples. Further, the Hepes B buffer was used as a control. After supernatant collection, the cells were precipitated by centrifugation (800×g, 5 minutes, 4° C.), and 70 μl of the supernatant were collected and cryopreserved. The concentration of GLP-1 in the supernatant was measured with a commercially available Enzyme immuno assay kit (Yanaihara Institute Inc.).
# In the same manner as in Example 2, a function to promote the secretion of GLP-1 was examined using a GLP-1-producing cell strain GLUTag. γ-Glu-Cys and protamine were used as samples.
# male SD rats [3] = assay: GLP-1 secretion test in rats (ligated ileal loop); type: in vivo; details: rat, 20 mg/2 mL deionized water into ligated ileum loop, ileal mesenteric vein blood 30-120 minutes, compared to water administration group; FIG. 4
# Procedure: After male SD rats (8-week-old) had been preliminarily fed, fasted overnight, and subjected to celiotomy under ketamine/xylazine anesthesia. GLP-1-producing cells are mainly distributed in an ileal site. Thus, after a ligated ileal loop (30 cm) had been prepared, a catheter was placed into the ileal mesenteric vein, and blood was collected from the catheter at the time of 0 minute (0 time). A sample (2 mL of deionized water, 20 mg of γ-Glu-Cys/2 mL of deionized water) was administered into the ligated ileum loop, blood was collected at 30, 60, 90, and 120 minutes after administration, respectively, and the plasma GLP-1 concentration was measured with an Enzyme immuno assay kit (manufactured by Yanaihara Institute Inc.).
# [4] = tested on: CCK-producing cell strain STC-1; assay: Function to promote secretion of CCK from STC-1 cells; type: cell-based, mouse; details: incubation 37° C. for 60 minutes, CCK in supernatant by Enzyme immuno assay, vs Hepes B buffer control, FIG. 1
# Procedure: A CCK-producing cell strain STC-1 derived from the mouse small intestine was cultured in a Dulbecco's modified Eagle's medium supplemented with 10% FBS at 37° C. in the presence of 5% CO2. The STC-1 cells were cultured in a 48-well plate for 2 to 3 days until the cells reached a subconfluent state. Prior to the addition of each of the samples, the wells were washed with a Hepes B buffer (140 mM NaCl, 4.5 mM KCl, 20 mM Hepes, 1.2 mM CaCl2, 1.2 mM MgCl2, 10 mM D-glucose, 0.1% BSA, pH 7.4), […] of a sample solution obtained by dissolving each of the samples in the same buffer were added to the wells, and incubation was performed at 37° C. for 60 minutes. γ-Glu-Cys-Gly (Sigma-Aldrich Japan K.K.), γ-Glu-Val-Gly, and cinacalcet were used as the samples. Further, the Hepes B buffer was used as a control. After supernatant collection, the cells were precipitated by centrifugation (800×g, 5 minutes, 4° C.), and 80 μl of the supernatant were collected and cryopreserved.
# After the supernatant had been pretreated with an OASIS cartridge (C18), the concentration of CCK in the supernatant was measured with an Enzyme immuno assay kit (Phoenix Pharmaceuticals).
Compound,calcium receptor activation (calcium receptor),other results
[γGlu]-Ser,activate a calcium receptor,
[γGlu]-Cys,activate a calcium receptor,blood glucose concentration (male SD rats [1]): significantly lower blood glucose concentration value; promotion of secretion of GLP-1 [2]: functioned to promote the secretion of GLP-1; plasma GLP-1 concentration (male SD rats [3]): significantly higher elevation of plasma GLP-1 concentration
[γGlu]-Val-NH2,activate a calcium receptor,
γ-Glu-Tau,activate a calcium receptor,
[γGlu]-[γGlu]-Val,activate a calcium receptor,
γ-Glu-Cys(S-Me)(O),activate a calcium receptor,
[γGlu]-[Met(O)],activate a calcium receptor,
[γGlu]-Ile,activate a calcium receptor,
[γGlu]-Val-Gly,,promotion of secretion of CCK [4]: functioned to promote the secretion of CCK
γ-Glu-Cys(S-Me),activate a calcium receptor,
Leu-Asp,activate a calcium receptor,
Asp-Gly,activate a calcium receptor,
[γGlu]-Ala,activate a calcium receptor,
protamine,,promotion of secretion of GLP-1 [2]: functioned to promote the secretion of GLP-1
[γGlu]-Met,activate a calcium receptor,
Glu-Cys,activate a calcium receptor,
Gly-Cys,activate a calcium receptor,
[γGlu]-Leu,activate a calcium receptor,
γ-Glu-Val-ol,activate a calcium receptor,
Cys-Gly,activate a calcium receptor,
"C[C@@H](NCCCc1cccc(C(F)(F)F)c1)c1cccc2ccccc12 [cinacalcet, (R)-N-(3-(3-(trifluoromethyl)phenyl)propyl)-1-(1-naphthyl)ethylamine, reference compound]",,promotion of secretion of GLP-1 [2]: functioned to promote the secretion of GLP-1; promotion of secretion of CCK [4]: functioned to promote the secretion of CCK
N[C@@H](CCC(=O)N[C@@H](CS)C(=O)NCC(=O)O)C(=O)O [γ-Glu-Cys-Gly],is a calcium receptor activator,promotion of secretion of GLP-1 [2]: functioned to promote the secretion of GLP-1; promotion of secretion of CCK [4]: functioned to promote the secretion of CCK
γ-Glu-t-Leu,activate a calcium receptor,
Cys-Met,activate a calcium receptor,
[γGlu]-Thr,activate a calcium receptor,
[γGlu]-Val,activate a calcium receptor,
[γGlu]-Gly,activate a calcium receptor,
γ-Glu-Orn,activate a calcium receptor,

# From patent US20110046046A1, “PROPHYLACTIC OR THERAPEUTIC COMPOSITION FOR DIABETES OR OBESITY” (priority 2008, published 2011)
